Patent US20260265694A1, “USE OF A VITISIN COMPOUND FOR THE PRODUCTION OF HEMATOPOIETIC CELLS” (ETABLISSEMENT FRANCAIS DU SANG, priority 2022, published 2026)

Assays:
[1] = test system: placental blood CD34+ cells; experiment: ERYTHRO 2 PROTOCOL: three-phase erythrocyte differentiation; type: cell-based, human
From the text: (§1) This protocol was applied to CD34^+ cells. Phase 1 of this protocol was in particular applied to BFU-E cells. This protocol was adapted from Vlaski et al. (Experimental Hematology 2009; 37:573-584).
(§2) The ex vivo erythrocyte production was established on a 28-day cell culture and involves three phases, namely 1) amplification of primitive erythrocyte progenitors, then 2) differentiation of said progenitors into erythrocyte precursors, and finally 3) the terminal stage of maturation with cell enucleation and development of mature erythrocytes.
(§3) i. Detailed Description of the Three Phases of the Protocol • Phase I of the protocol starts on DO with the seeding of 10^4 cells/mL in 5 mL of supplemented IMDM medium as defined below (see section ii). On day 4, dilution of the culture is performed by recovering 3 mL, which is replaced with the same volume of fresh medium. […] From day 11 to the end of the process, the cells are placed on a layer of mesenchymal stromal cells (MSCs) (coculture), allowing terminal maturation into functional enucleated cells by virtue of the contact between stromal cells and erythrocyte precursors. Suspended erythrocyte cells are seeded at a concentration of 3×10^5/ml and co-cultured from day 11 to day 15 in fresh medium with cytokines (SCF, IL-3, EPO and HC) and 5% fetal calf serum (FCS) required for MSCs. On day 15, the suspended erythrocyte cells are removed from culture, washed, then reseeded onto a new adherent layer of MSCs and cultured for a further four days in 2 mL of fresh medium containing only EPO. • Phase III of the protocol begins on day 19. At this stage, the cells complete their maturation by the enucleation of orthochromatic erythroblasts to form reticulocytes, leading to the formation of erythrocytes. On day 19, the cells are washed and spread on a new layer of MSCs in 2 mL of fresh cytokine-free medium. On day 23, the cultures are fed with fresh medium until day 28, corresponding to the last day of culture in the erythropoiesis protocol. ii. Description of the Culture Medium
(§4) The cells are incubated in Iscove's Modified Dulbecco Medium (IMDM_PAN BIOTECH) supplemented with various reagents to obtain a medium promoting the growth of cells committed to the erythrocyte lineage, namely: • L-Glutamine (4 mM), • Streptomycin and penicillin (1%), • Inositol (40 μg/mL), • Folic acid (10 μg/mL), • Mono-thioglycerol (1.6×10^−4 M), • Transferrin (120 μg/mL), • Insulin (10 μg/mL), N • Iron nitrate (90 ng/mL), • Iron sulfate (900 ng/mL) • Human serum albumin (10 mg/ml).
(§5) After preparation of the culture medium, cytokines are added extemporaneously to the culture medium: • Stem Cell Factor (SCF) at 100 ng/mL, • Interleukin-3 (IL-3) at 5 ng/mL, • Erythropoietin (EPO) at 3 IU/mL, • Hydrocortisone (HC) at 10^−6 M. The CD34^+ cells are incubated at 20% O2 and 5% CO2 at 37° C. for 28 days. iii. Description of the Culture Conditions Applied In order to test the effect of vitisin B in this context, various conditions were defined.
(§6) • CTRL condition: Absence of vitisin B throughout the entire protocol. • Condition I: Presence of vitisin B (10 μM) during phase I of the protocol. • […]: Presence of vitisin B (10 μM) during phases I and II of the protocol. • Condition III: Presence of vitisin B (10 μM) during the three phases of the protocol.
(§7) Analyses are performed on cells from each condition. The differentiation and maturation of erythrocyte cells are monitored by quantifying progenitors, analyzing the expression of GPA and CD71 markers, and also by morphological analysis.
(§8) During and at the end of the various erythrocyte differentiation protocols, cell proliferation and cell differentiation are analyzed. Cell proliferation is evaluated by counting of cells on Malassez slides, with Trypan blue exclusion of dead cells. […]

[2] = test system: peripheral blood CD34+ cells; experiment: as above; type: cell-based, human; settings: peripheral blood CD34+ cells in homeostasis, 10 μM
From the text: as §1, §2, §3, §4, §5, §6, §7, §8

Oc1ccc(C2Oc3ccc(/C=C/c4cc(O)cc5c4[C@H](c4cc(O)cc(O)c4)[C@@H](c4ccc(O)cc4)O5)cc3C2c2cc(O)cc3c2C(c2cc(O)cc(O)c2)C(c2ccc(O)cc2)O3)cc1 (stereo in doubt) [vitisin B, 5-[(2R,2'S,3R,3'S)-5-[(1E)-2-[(2S,3S)-3-(3,5-Dihydroxyphenyl)-2,3-dihydro-6-hydroxy-2-(4-hydroxyphenyl)-4-benzofuranyl]ethenyl]-2,2′,3,3′-tetrahydro-6′-hydroxy-2,2′-bis(4-hydroxyphenyl)[3,4′-bibenzofuran]-3′-yl]-1,3-benzenediol]
percentage of cells with the phenotype CD71negGPA+ ([1]; 10 μM, versus CTRL, FIG. 6A): increases
cell proliferation in phase I ([1]; Days 0 to 11, 10 μM, versus CTRL, FIG. 5): similar
number of cells relative to the control condition (CTRL) ([1]; condition I: vitisin B 10 μM during phase I only, FIG. 5): 1.5 times
cells expressing GPA ([1]; day 8 of culture, stated without distinguishing conditions): less than 20%
cells expressing GPA ([1]; day 28, 10 μM (CTRL 40%), FIG. 6A): more than 50%
cell proliferation from the transition to phase II ([1]; from Day 11, peak on day 21, 10 μM, conditions I, II, III, FIG. 5): sharp increase
absolute number of cells with the phenotype CD71negGPA+ ([1]; vitisin B 10 μM in phase I, FIG. 6B): increases
cell proliferation from the transition to phase II [2]: sharp increase
